Here are results for one compound from EP0687469A2, “Anti-arrhythmic 3,7-diazabicyclo (3,3,1)nonane compounds” (Kali-Chemie Pharma GmbH, priority 1994, dated 1995).

Assay [1] has as its system transienter Auswärtsstrom Ito. Description: voltage clamp measurement of ion currents in isolated heart muscle cells (Ito). Type of assay: cell-based, Ratten. Conditions: read-out: Blockade von Ionenströmen in % des Vorwerts transienter Auswärtsstrom Ito. The source says:
(§1) Die Experimente wurden mit der Spannungsklemmmethode an isolierten Herzmuskelzellen von Meerschweinchen und Ratten durchgeführt. Hierbei wurden die Messungen des Ito an Zellen von Rattenherzen und die Messungen des Ik an Zellen von Meerschweinchenherzen durchgeführt. Die Herzen wurden mit proteolytischen Enzymen (Collagenase) perfundiert, um das Bindegewebe zu lockern. Anschließend wurde das Gewebe mechanisch zerkleinert und sodann erfolgte eine weitere Vereinzelung der Zellen in einer Nährlösung im Schüttelbad. Durch anschließendes Zentrifugieren wurde eine Suspension von Herzmuskelzellen erhalten. Bei der angewendeten Spannungsklemmethode zur Messung der Membranströme wird mittels einer Mikroelektrode (in Form einer mit Elektrolytlösung gefüllten Glaskapillare) das Zellinnere mit einem Verstärker verbunden, der die Membranspannung vorgeben kann. Fließt nun ein Ionenstrom durch die Membran (= Öffnung des Ionenkanalproteins) und verschiebt die Membranspannung, kompensiert der Verstärker diese Verschiebung durch einen Gegenstrom, d. h. die Spannung ist sozusagen festgeklemmt. Der gemessene Gegenstrom entspricht in seinem zeitlichen Verlauf dem physiologischen Ionenstrom mit umgekehrtem Vorzeichen. Die Aktivierung der verschiedenen Ionenströme in der Zellmembran hängt charakteristisch von Spannung und Zeit ab. […]

For assay [2], the system named is verz.gleichr. Auswärtsstrom Ik. Description: voltage clamp measurement of ion currents in isolated heart muscle cells (Ik). The assay is classed as cell-based, Meerschweinchen. The settings on record: read-out: Blockade von Ionenströmen in % des Vorwerts verz.gleichr. Auswärtsstrom Ik.
From the text: as §1

For the compound `CC(C)CN1CC2CN(C(C)C)CC(C1)C21CCCCC1` [Bertosamil, N-Isobutyl-N'-isopropyl-9,9-pentamethylen-3,7-diazabicyclo[3,3,1]nonan], the values for the inhibition at 1 µM in assay [1] and in assay [2] were 38% and 13%, respectively.
